Assays:
stomach acid secretion = details: rat model, cited from earlier work
[1] = open label observation for control of heart burn in volunteers; type: in vivo, human; details: open label observations in people
Text: The preferred ingredients of the dietary supplement formulations for preventing or treating or managing upper digestive disorders referred to in this patent including but not limited to acid related disease, H. pylori infection and ulcerogenic medications, drugs or substances such as alcohol, tobacco smoke or any other damaging agent that is ingested or absorbed in to the body that may cause upper digestive disturbance are listed in one formulation that has undergone open label observation for the control of the symptom heart burn in six volunteers with recurrent heart burn and this formulation was made in several batches of a chewable tablet with the following ingredients that have been modified from time to time. These chewable tablets contain the following ingredients with amounts listed in two chewable tablets. The range of the ingredients has been made in different dosage amounts of each ingredient and tested in at least two volunteers for each of six batches of varying dosage of ingredients. Each batch consistently relieved symptoms of mild moderate or severe heart burn in open labeled observations in volunteers with symptoms of gastresophageal reflux disease.

gastric acid secretion = details: cited from earlier work

Row | Molecule | stomach acid secretion (stomach acid secretion; at a certain dosage level) | stomach ulcers (stomach acid secretion) | dyspepsia and heartburn [1] | development of stomach ulcers (gastric acid secretion; animals exposed to cold water immersion or restraint) | gastric acid secretion (gastric acid secretion; animals) | formation of gastric ulcers (gastric acid secretion; pylorus-ligated animals)
1 | O=c1oc2c(O)c(O)cc3c(=O)oc4c(O)c(O)cc1c4c23 [ellagic acid] | stomach acid secretion was blocked | ulcers could be prevented in part | has helped people with dyspepsia and heartburn |  |  | 
2 | salvianolic acid |  |  |  | prevents the development of stomach ulcers | reduce gastric acid secretion | reduce the formation of gastric ulcers
